Laboratory results published in US20240389600A1 (The United States of America, as represented by the …, priority 2023, published 2024).
Like-named read-outs stand apart in the source and are kept apart here.

What was measured:
Georgia-06G peanut seeds [1] = assay: Static incubation of hydrated peanut seeds with H2O2; resveratrol content by HPLC; conditions: for resveratrol content in seeds: 48 and 72-h incubation
Georgia-06G peanut seeds [2] = conditions: 3% H2O2 replaced every 24 h, seed to liquid 1:8 w/v, 20° C., 72 h, Georgia-06G (2021 harvest)
Georgia-06G peanut seeds [3] = conditions: 20° C.

OO [H2O2, hydrogen peroxide]
resveratrol content in seeds (Georgia-06G peanut seeds [1]; 2% H2O2, 20° C., Georgia-06G (2021 harvest), FIG. 13): 100 to 200 µg/g | resveratrol production under moderate acidic conditions (Georgia-06G peanut seeds [1]; 2% H2O2, 20° C., static, acidic conditions, Georgia-06G 2020 harvest): almost completely blocked resveratrol production | levels of resveratrol in seeds (Georgia-06G peanut seeds [1]; 3% H2O2, static, 15° C., after 72 and 96 h, Georgia-06G (2021 harvest)): 20 to 50 µg/g | resveratrol content in seeds (Georgia-06G peanut seeds [1]; static, 20° C., Georgia-06G (2021 harvest), FIG. 11C): 50 to 100 µg/g | concentration of H2O2 that damages seeds (overall production of resveratrol drops, particularly after 72 h) (Georgia-06G peanut seeds [1]; static, 20° C., seeds to H2O2 1:6 w/v, Georgia-06G 2021): above 4% | resveratrol concentration (Georgia-06G peanut seeds [2]): 600 µg/g | resveratrol accumulation (Georgia-06G peanut seeds [3]; 2% H2O2, in-shaker, after 72 h, Georgia-06G 2021): exceeding 300 μg/g of seed dry weight | resveratrol concentration (Georgia-06G peanut seeds [3]; 3% H2O2 replaced every 24 h, seed to liquid 1:4 w/v, shaker, 72 h, Georgia-06G (2021 harvest)): 400 µg/g | concentration of resveratrol in seed extract chromatogram (Georgia-06G peanut seeds [3]; 3 portions of 3% H2O2 (new charge every 24 h), shaker, 72 h, Georgia-06G 2021): 334 μg/g of dry weight
